Experimental data from US20200093103A1, “BREEDING WATER FOR ANGUILLIFORMES AND METHOD FOR REARING ANGUILLIFORMES” (SHIN NIPPON BIOMEDICAL LABORATORIES, LTD., priority 2016, published 2020).

Tested on: Anguilla japonica leptocephali
Test: Induction of Anguilla japonica metamorphosis by T4 treatment in 23° C. breeding water
Format: in vivo
Set-up: key: L: During life, no characteristics of metamorphosis seen.; Stage 1: Starting phase of metamorphosis. The rostral end is rounded, and intestinal degeneration starts.; Stage 2: Peak phase of metamorphosis. Intestinal degeneration becomes pronounced.; Stage 3: Late phase of metamorphosis.; Stage 4: Pre-glass eel stage. Almost the eel form, but the body height still remains
Description: Stage 1: Starting phase of metamorphosis. The rostral end is rounded, and intestinal degeneration starts.
Stage 2: Peak phase of metamorphosis. Intestinal degeneration becomes pronounced. In the second half, the anus reaches to near the last vertical blood vessel (VBV last).
Stage 3: Late phase of metamorphosis. The preanal length (PAL) becomes equal to or shorter than the last vertical blood vessel length (VBV last Length) (PAL VBV last Length). The body height is apparently low.
Stage 4: Pre-glass eel stage. Almost the eel form, but the body height still remains. Melanophores on the body surface or endogenous melanophores are not yet seen.
Elver stage: Juvenile stage. Food intake can be identified.
A thyroid hormone (e.g., thyroxine (T4)) is adjusted to 50 to 100 mM in a 1- to 2-mL volume messflask. As a solvent, known solvents (water, alcohol) can be used. Ethanol is preferably used as the solvent.
For example, using ethanol as a solvent, T4 adjusted to 50 mM is diluted 500-fold, 5,000-fold, and 50,000-fold, respectively, and adjusted to […], 1 μM, and 100 nM. A feed can be prepared in this manner.
Artificial seawater is added to a breeding vessel, and 1/1000 of the […] T4 is added to prepare […] T4 breeding water.
Half of the breeding water is replaced every two days with breeding water of the same concentration. In the case where the concentration is changed, for example, in the case of changing from 10 nM to 2 nM, 80% to the breeding water is removed, and unadjusted artificial seawater is newly added to make 1 L.
Leptocephali visually considered to have reached a total length of 40 mm (or may be 30 mm to 50 mm, may be 35 mm to 45 mm, or may also be 35 mm or more, 40 mm or more, or 45 mm or more) are selected, anesthetized with 2-phenoxyethanol, and then photographed, and the total length of each larva is measured using an image analyzing device.
The larvae are placed in 10 nM T4 breeding water and then placed in an incubator set at 23° C., and breeding is started. In first one week, observation is performed every two days, and half of the 10 nM T4 breeding water is replaced each time. The average amount of thyroid hormone in the breeding water in stage 1 is 1 nM to 100 nM, for example, and may also be 3 nM to 30 nM, or 5 nM to 20 nM.
For larvae visually judged to have reached the second half of stage 2, the concentration of the breeding water is changed. The breeding water is diluted 5-fold or 10-fold and adjusted to 2 nM or 1 nM T4, and breeding is continued. The average amount of thyroid hormone in the breeding water in stage 2 may be, as compared with the breeding water of stage 1, diluted 2-fold to 20-fold, diluted 3 to 15-fold, or diluted 5 to 10-fold as described above. The average amount of thyroid hormone in the breeding water in stage 2 is 0.1 nM to 20 nM, for example, and may also be 0.5 nM to 10 nM, 1 nM to 5 nM, or 1 nM to 2 nM.
For larvae visually judged to have reached stage 3, the breeding water is quickly changed 0.2 nM T4 breeding water, which is a 5-fold dilution of 1 nM T4 breeding water, and further changed to 0.1 nM T4 breeding water on the following day. […] Also, in larvae whose anus position has not reached the last vertical hemal spine, when they are judged to be on the brink of stage 3, the concentration is changed as above. The average amount of thyroid hormone in the breeding water in stage 3 may be, as compared with the breeding water of stage 2, diluted 2-fold to 50-fold, diluted 3 to 15-fold, diluted 4 to 6-fold, or diluted 5-fold as described above. The average amount of thyroid hormone in the breeding water in stage 3 is 0.01 nM to 2 nM, for example, and may also be 0.05 nM to 1 nM, 0.1 nM to 0.5 nM, or 0.1 nM to 0.2 nM. […] That is, the concentration may be changed such that the thyroid hormone becomes undetectable in the breeding water in the course of stage 3.
In stage 3, breeding is continuously performed in the 0.1 nM T4 breeding water. […]

N[C@@H](Cc1cc(I)c(Oc2cc(I)c(O)c(I)c2)c(I)c1)C(=O)O [T4, thyroxine]
metamorphosis stage (individual Exp. 5-6, 174 days old, total length 34.5 mm at start, c3 onward = treatment days 1,3,5,7,8,9,10,11,12,13,14,15,16,17,18,20,22, T4 (nM) 10,10,10,10,10,10,10,2,1,1,0.2,0.1,0.1,0.1,0.1,0.1,0.1, treatment day 11, T4 2 nM): 2
metamorphosis stage (individual Exp. 5-6, 174 days old, total length 34.5 mm at start, c3 onward = treatment days 1,3,5,7,8,9,10,11,12,13,14,15,16,17,18,20,22, T4 (nM) 10,10,10,10,10,10,10,2,1,1,0.2,0.1,0.1,0.1,0.1,0.1,0.1, treatment day 12, T4 1 nM): 2
metamorphosis stage (individual Exp. 5-6, 174 days old, total length 34.5 mm at start, c3 onward = treatment days 1,3,5,7,8,9,10,11,12,13,14,15,16,17,18,20,22, T4 (nM) 10,10,10,10,10,10,10,2,1,1,0.2,0.1,0.1,0.1,0.1,0.1,0.1, treatment day 13, T4 1 nM): 2
metamorphosis stage (individual Exp. 5-6, 174 days old, total length 34.5 mm at start, c3 onward = treatment days 1,3,5,7,8,9,10,11,12,13,14,15,16,17,18,20,22, T4 (nM) 10,10,10,10,10,10,10,2,1,1,0.2,0.1,0.1,0.1,0.1,0.1,0.1, treatment day 14, T4 0.2 nM): 3
metamorphosis stage (individual Exp. 5-6, 174 days old, total length 34.5 mm at start, c3 onward = treatment days 1,3,5,7,8,9,10,11,12,13,14,15,16,17,18,20,22, T4 (nM) 10,10,10,10,10,10,10,2,1,1,0.2,0.1,0.1,0.1,0.1,0.1,0.1, treatment day 15, T4 0.1 nM): 3
metamorphosis stage (individual Exp. 5-6, 174 days old, total length 34.5 mm at start, c3 onward = treatment days 1,3,5,7,8,9,10,11,12,13,14,15,16,17,18,20,22, T4 (nM) 10,10,10,10,10,10,10,2,1,1,0.2,0.1,0.1,0.1,0.1,0.1,0.1, treatment day 16, T4 0.1 nM): 3
metamorphosis stage (individual Exp. 5-6, 174 days old, total length 34.5 mm at start, c3 onward = treatment days 1,3,5,7,8,9,10,11,12,13,14,15,16,17,18,20,22, T4 (nM) 10,10,10,10,10,10,10,2,1,1,0.2,0.1,0.1,0.1,0.1,0.1,0.1, treatment day 17, T4 0.1 nM): 3
metamorphosis stage (individual Exp. 5-6, 174 days old, total length 34.5 mm at start, c3 onward = treatment days 1,3,5,7,8,9,10,11,12,13,14,15,16,17,18,20,22, T4 (nM) 10,10,10,10,10,10,10,2,1,1,0.2,0.1,0.1,0.1,0.1,0.1,0.1, treatment day 18, T4 0.1 nM): 3
metamorphosis stage (individual Exp. 5-6, 174 days old, total length 34.5 mm at start, c3 onward = treatment days 1,3,5,7,8,9,10,11,12,13,14,15,16,17,18,20,22, T4 (nM) 10,10,10,10,10,10,10,2,1,1,0.2,0.1,0.1,0.1,0.1,0.1,0.1, treatment day 20, T4 0.1 nM): 3
metamorphosis stage (individual Exp. 5-6, 174 days old, total length 34.5 mm at start, c3 onward = treatment days 1,3,5,7,8,9,10,11,12,13,14,15,16,17,18,20,22, T4 (nM) 10,10,10,10,10,10,10,2,1,1,0.2,0.1,0.1,0.1,0.1,0.1,0.1, treatment day 22, T4 0.1 nM): 4
metamorphosis stage (individual Exp. 6-1, 129 days old, total length 40.6 mm at start, c3 onward = treatment days 1,3,5,7,9,10,11,12,13,14,15,16,17,18,19, T4 (nM) 10,10,10,10,2,1,0.2,0.1,0.1,0.1,0.1,0.1,0.1,0.1,0.1, treatment day 1): L
metamorphosis stage (individual Exp. 6-1, 129 days old, total length 40.6 mm at start, c3 onward = treatment days 1,3,5,7,9,10,11,12,13,14,15,16,17,18,19, T4 (nM) 10,10,10,10,2,1,0.2,0.1,0.1,0.1,0.1,0.1,0.1,0.1,0.1, treatment day 3): 1
metamorphosis stage (individual Exp. 6-1, 129 days old, total length 40.6 mm at start, c3 onward = treatment days 1,3,5,7,9,10,11,12,13,14,15,16,17,18,19, T4 (nM) 10,10,10,10,2,1,0.2,0.1,0.1,0.1,0.1,0.1,0.1,0.1,0.1, treatment day 5): 1
metamorphosis stage (individual Exp. 6-1, 129 days old, total length 40.6 mm at start, c3 onward = treatment days 1,3,5,7,9,10,11,12,13,14,15,16,17,18,19, T4 (nM) 10,10,10,10,2,1,0.2,0.1,0.1,0.1,0.1,0.1,0.1,0.1,0.1, treatment day 7): 2
metamorphosis stage (individual Exp. 6-1, 129 days old, total length 40.6 mm at start, c3 onward = treatment days 1,3,5,7,9,10,11,12,13,14,15,16,17,18,19, T4 (nM) 10,10,10,10,2,1,0.2,0.1,0.1,0.1,0.1,0.1,0.1,0.1,0.1, treatment day 9): 2
metamorphosis stage (individual Exp. 6-1, 129 days old, total length 40.6 mm at start, c3 onward = treatment days 1,3,5,7,9,10,11,12,13,14,15,16,17,18,19, T4 (nM) 10,10,10,10,2,1,0.2,0.1,0.1,0.1,0.1,0.1,0.1,0.1,0.1, treatment day 10): 2
metamorphosis stage (individual Exp. 6-1, 129 days old, total length 40.6 mm at start, c3 onward = treatment days 1,3,5,7,9,10,11,12,13,14,15,16,17,18,19, T4 (nM) 10,10,10,10,2,1,0.2,0.1,0.1,0.1,0.1,0.1,0.1,0.1,0.1, treatment day 11): 3
metamorphosis stage (individual Exp. 6-1, 129 days old, total length 40.6 mm at start, c3 onward = treatment days 1,3,5,7,9,10,11,12,13,14,15,16,17,18,19, T4 (nM) 10,10,10,10,2,1,0.2,0.1,0.1,0.1,0.1,0.1,0.1,0.1,0.1, treatment day 12): 3
metamorphosis stage (individual Exp. 6-1, 129 days old, total length 40.6 mm at start, c3 onward = treatment days 1,3,5,7,9,10,11,12,13,14,15,16,17,18,19, T4 (nM) 10,10,10,10,2,1,0.2,0.1,0.1,0.1,0.1,0.1,0.1,0.1,0.1, treatment day 13): 3
metamorphosis stage (individual Exp. 6-1, 129 days old, total length 40.6 mm at start, c3 onward = treatment days 1,3,5,7,9,10,11,12,13,14,15,16,17,18,19, T4 (nM) 10,10,10,10,2,1,0.2,0.1,0.1,0.1,0.1,0.1,0.1,0.1,0.1, treatment day 14): 3
metamorphosis stage (individual Exp. 6-1, 129 days old, total length 40.6 mm at start, c3 onward = treatment days 1,3,5,7,9,10,11,12,13,14,15,16,17,18,19, T4 (nM) 10,10,10,10,2,1,0.2,0.1,0.1,0.1,0.1,0.1,0.1,0.1,0.1, treatment day 15): 3
metamorphosis stage (individual Exp. 6-1, 129 days old, total length 40.6 mm at start, c3 onward = treatment days 1,3,5,7,9,10,11,12,13,14,15,16,17,18,19, T4 (nM) 10,10,10,10,2,1,0.2,0.1,0.1,0.1,0.1,0.1,0.1,0.1,0.1, treatment day 16): 3
metamorphosis stage (individual Exp. 6-1, 129 days old, total length 40.6 mm at start, c3 onward = treatment days 1,3,5,7,9,10,11,12,13,14,15,16,17,18,19, T4 (nM) 10,10,10,10,2,1,0.2,0.1,0.1,0.1,0.1,0.1,0.1,0.1,0.1, treatment day 17): 3
metamorphosis stage (individual Exp. 6-1, 129 days old, total length 40.6 mm at start, c3 onward = treatment days 1,3,5,7,9,10,11,12,13,14,15,16,17,18,19, T4 (nM) 10,10,10,10,2,1,0.2,0.1,0.1,0.1,0.1,0.1,0.1,0.1,0.1, treatment day 18): 3
metamorphosis stage (individual Exp. 6-1, 129 days old, total length 40.6 mm at start, c3 onward = treatment days 1,3,5,7,9,10,11,12,13,14,15,16,17,18,19, T4 (nM) 10,10,10,10,2,1,0.2,0.1,0.1,0.1,0.1,0.1,0.1,0.1,0.1, treatment day 19): 4
